In brackets after ≈: the same amount, converted by molar mass.
Columns and labels:
Staphylococcus aureus [1] = experiment: Antibacterial activity against Staphylococcus aureus assessed as inhibition of bacterial growth; format: functional
Acinetobacter baumannii = experiment: Antibacterial activity against Acinetobacter baumannii assessed as inhibition of bacterial growth; format: functional
Escherichia coli [2] = experiment: Antibacterial activity against Escherichia coli MTCC 443 assessed as diameter of zone of inhibition at 500 ug/ml by agar disk diffusion method; format: functional; conditions: read-out: DIZ
Bacillus subtilis [3] = experiment: Antibacterial activity against Bacillus subtilis MTCC 736 assessed as diameter of zone of inhibition at 500 ug/ml by agar disk diffusion method; format: functional; conditions: read-out: DIZ
Staphylococcus aureus [4] = experiment: Antibacterial activity against Staphylococcus aureus MTCC 902 assessed as diameter of zone of inhibition at 500 ug/ml by agar disk diffusion method; format: functional; conditions: read-out: DIZ
Pseudomonas aeruginosa [5] = experiment: Antibacterial activity against Pseudomonas aeruginosa MTCC 2453 assessed as diameter of zone of inhibition at 500 ug/ml by agar disk diffusion method; format: functional; conditions: read-out: DIZ
Escherichia coli [6] = experiment: Antibacterial activity against Escherichia coli MTCC 443 assessed as inhibition of bacterial growth incubated overnight by serial dilution based spectrophotometer; format: functional
Enterococcus faecalis [7] = experiment: Antibacterial activity against Enterococcus faecalis MTCC 439 assessed as inhibition of bacterial growth incubated overnight by serial dilution based spectrophotometer; format: functional
Bacillus subtilis [8] = experiment: Antibacterial activity against Bacillus subtilis MTCC 736 assessed as inhibition of bacterial growth incubated overnight by serial dilution based spectrophotometer; format: functional
Staphylococcus aureus [9] = experiment: Antibacterial activity against Staphylococcus aureus MTCC 902 assessed as inhibition of bacterial growth incubated overnight by serial dilution based spectrophotometer; format: functional
Pseudomonas aeruginosa [10] = experiment: Antibacterial activity against Pseudomonas aeruginosa MTCC 2453 assessed as inhibition of bacterial growth incubated overnight by serial dilution based spectrophotometer; format: functional
Salmonella typhi [11] = experiment: Antibacterial activity against Salmonella typhi assessed as inhibition of bacterial growth incubated overnight by serial dilution based spectrophotometer; format: functional, Salmonella enterica subsp. enterica serovar Typhi; conditions: Salmonella enterica
Escherichia coli [12] = experiment: Bactericidal activity against Escherichia coli MTCC 443 assessed as inhibition of bacterial growth incubated overnight; format: functional
Bacillus subtilis [13] = experiment: Bactericidal activity against Bacillus subtilis MTCC 736 assessed as inhibition of bacterial growth incubated overnight; format: functional
Staphylococcus aureus [14] = experiment: Bactericidal activity against Staphylococcus aureus MTCC 902 assessed as inhibition of bacterial growth incubated overnight; format: functional
Pseudomonas aeruginosa [15] = experiment: Bactericidal activity against Pseudomonas aeruginosa MTCC 2453 assessed as inhibition of bacterial growth incubated overnight; format: functional
Staphylococcus aureus [16] = experiment: Ratio of MBC for antibacterial activity against Staphylococcus aureus MTCC 902 to MIC for bactericidal activity against Staphylococcus aureus MTCC 902; format: functional
Enterococcus faecalis [17] = experiment: Antibacterial activity against Enterococcus faecalis MTCC 439 assessed as diameter of zone of inhibition at 500 ug/ml by agar disk diffusion method; format: functional; conditions: read-out: DIZ
Salmonella typhi [18] = experiment: Antibacterial activity against Salmonella typhi assessed as diameter of zone of inhibition at 500 ug/ml by agar disk diffusion method; format: functional, Salmonella enterica subsp. enterica serovar Typhi; conditions: Salmonella enterica, read-out: DIZ
Enterococcus faecalis [19] = experiment: Bactericidal activity against Enterococcus faecalis MTCC 439 assessed as inhibition of bacterial growth incubated overnight; format: functional
Salmonella typhi [20] = experiment: Bactericidal activity against Salmonella typhi assessed as inhibition of bacterial growth incubated overnight; format: functional, Salmonella enterica subsp. enterica serovar Typhi; conditions: Salmonella enterica
Escherichia coli [21] = experiment: Ratio of MBC for antibacterial activity against Escherichia coli MTCC 443 to MIC for bactericidal activity against Escherichia coli MTCC 443; format: functional
Bacillus subtilis [22] = experiment: Ratio of MBC for antibacterial activity against Bacillus subtilis MTCC 736 to MIC for bactericidal activity against Bacillus subtilis MTCC 736; format: functional

Work on `CC(NC1=NC(c2cc3cc(OCc4cccc(Cl)c4)ccc3nc2O)N=CN1)c1ccccc1` (stereo unspecified) yielded an MIC (Staphylococcus aureus [1]) of 2 µg/mL (≈ 4.12 µM).

Compound `N/N=C/c1cc(N2CCOCC2)c2cccc(C(F)(F)F)c2n1` has an MIC (Acinetobacter baumannii) of 2 µg/mL (≈ 6.17 µM).

`Cc1cccc2c1NC(=O)/C2=N\CCNc1ccnc2cc(Cl)ccc12` gave a zone of inhibition at 500 µg/mL (Escherichia coli [2]) of 11 mm, a zone of inhibition at 500 µg/mL (Bacillus subtilis [3]) of 12 mm and a zone of inhibition at 500 µg/mL (Staphylococcus aureus [4]) of 11 mm. It also gave a zone of inhibition at 500 µg/mL (Pseudomonas aeruginosa [5]) of 12 mm, an MIC (Escherichia coli [6]) of 256 µg/mL (≈ 702 µM) and an MIC (Enterococcus faecalis [7]) greater than 512 µg/mL. For the same compound, the MIC (Bacillus subtilis [8]) was 256 µg/mL (≈ 702 µM), the MIC (Staphylococcus aureus [9]) was 256 µg/mL (≈ 702 µM) and the MIC (Pseudomonas aeruginosa [10]) was 256 µg/mL (≈ 702 µM). The MIC (Salmonella typhi [11]) was greater than 512 µg/mL, the MBC (Escherichia coli [12]) was greater than 512 µg/mL and the MBC (Bacillus subtilis [13]) was greater than 512 µg/mL. The MBC (Staphylococcus aureus [14]) was 256 µg/mL (≈ 702 µM), the MBC (Pseudomonas aeruginosa [15]) was greater than 512 µg/mL and the Ratio (Staphylococcus aureus [16]) was 1.

`Clc1ccc2c(NCC/N=C/c3ccccc3Cl)ccnc2c1` was tested, and the zone of inhibition at 500 µg/mL (Escherichia coli [2]) was 8 mm, the zone of inhibition at 500 µg/mL (Enterococcus faecalis [17]) was 9 mm and the zone of inhibition at 500 µg/mL (Bacillus subtilis [3]) was 8 mm. It also gave a zone of inhibition at 500 µg/mL (Staphylococcus aureus [4]) of 7 mm, a zone of inhibition at 500 µg/mL (Pseudomonas aeruginosa [5]) of 9 mm and a zone of inhibition at 500 µg/mL (Salmonella typhi [18]) of 9 mm.

With `Clc1ccc2c(NCC/N=C/c3ccco3)ccnc2c1` the zone of inhibition at 500 µg/mL (Escherichia coli [2]) was 9 mm, the zone of inhibition at 500 µg/mL (Enterococcus faecalis [17]) was 9 mm and the zone of inhibition at 500 µg/mL (Bacillus subtilis [3]) was 10 mm. For the same compound, the zone of inhibition at 500 µg/mL (Staphylococcus aureus [4]) was 10 mm, the zone of inhibition at 500 µg/mL (Pseudomonas aeruginosa [5]) was 9 mm and the zone of inhibition at 500 µg/mL (Salmonella typhi [18]) was 9 mm. For the same compound, the MIC (Escherichia coli [6]) was 512 µg/mL (≈ 1710 µM), the MIC (Enterococcus faecalis [7]) was 512 µg/mL (≈ 1710 µM) and the MIC (Bacillus subtilis [8]) was 256 µg/mL (≈ 854 µM). The MIC (Staphylococcus aureus [9]) was 256 µg/mL (≈ 854 µM), the MIC (Pseudomonas aeruginosa [10]) was 512 µg/mL (≈ 1710 µM) and the MIC (Salmonella typhi [11]) was 512 µg/mL (≈ 1710 µM). For the same compound, the MBC (Escherichia coli [12]) was 512 µg/mL (≈ 1710 µM), the MBC (Enterococcus faecalis [19]) was greater than 512 µg/mL and the MBC (Bacillus subtilis [13]) was 256 µg/mL (≈ 854 µM). The MBC (Staphylococcus aureus [14]) was 256 µg/mL (≈ 854 µM), the MBC (Pseudomonas aeruginosa [15]) was greater than 512 µg/mL and the MBC (Salmonella typhi [20]) was greater than 512 µg/mL. The Ratio (Escherichia coli [21]) was 1, the Ratio (Bacillus subtilis [22]) was 1 and the Ratio (Staphylococcus aureus [16]) was 1.

Work on `O=[N+]([O-])c1cccc(/C=N/CCNc2ccnc3cc(Cl)ccc23)c1` yielded a zone of inhibition at 500 µg/mL (Escherichia coli [2]) of 9 mm, a zone of inhibition at 500 µg/mL (Enterococcus faecalis [17]) of 8 mm and a zone of inhibition at 500 µg/mL (Bacillus subtilis [3]) of 6 mm. It also gave a zone of inhibition at 500 µg/mL (Staphylococcus aureus [4]) of 8 mm, a zone of inhibition at 500 µg/mL (Pseudomonas aeruginosa [5]) of 6 mm and a zone of inhibition at 500 µg/mL (Salmonella typhi [18]) of 9 mm.

In the case of `Cc1ccc(N/N=C/c2ccc(CN3CCN(c4ccnc5cc(Cl)ccc45)CC3)cc2)cc1`, the MIC (Acinetobacter baumannii) is reported as 2 µg/mL (≈ 4.26 µM).
